Assays:
Type in all cases: functional
Settings in all cases: read-out: GI
CCRF-CEM = assay: Growth inhibition of human CCRF-CEM cells at 10 uM incubated for 48 hrs by sulforhodamine B assay relative to control
K562 = assay: Growth inhibition of human K562 cells at 10 uM incubated for 48 hrs by sulforhodamine B assay relative to control
RPMI-8226 = assay: Growth inhibition of human RPMI-8226 cells at 10 uM incubated for 48 hrs by sulforhodamine B assay relative to control
A549 = assay: Growth inhibition of human A549/ATCC cells at 10 uM incubated for 48 hrs by sulforhodamine B assay relative to control
HOP-92 = assay: Growth inhibition of human HOP-92 cells at 10 uM incubated for 48 hrs by sulforhodamine B assay relative to control
NCI-H226 = assay: Growth inhibition of human NCI-H226 cells at 10 uM incubated for 48 hrs by sulforhodamine B assay relative to control
NCI-H23 = assay: Growth inhibition of human NCI-H23 cells at 10 uM incubated for 48 hrs by sulforhodamine B assay relative to control
NCI-H322M = assay: Growth inhibition of human NCI-H322M cells at 10 uM incubated for 48 hrs by sulforhodamine B assay relative to control
NCI-H460 = assay: Growth inhibition of human NCI-H460 cells at 10 uM incubated for 48 hrs by sulforhodamine B assay relative to control
NCI-H522 = assay: Growth inhibition of human NCI-H522 cells at 10 uM incubated for 48 hrs by sulforhodamine B assay relative to control
COLO 205 = assay: Growth inhibition of human COLO 205 cells at 10 uM incubated for 48 hrs by sulforhodamine B assay relative to control
HCC 2998 = assay: Growth inhibition of human HCC 2998 cells at 10 uM incubated for 48 hrs by sulforhodamine B assay relative to control
HCT-116 = assay: Growth inhibition of human HCT-116 cells at 10 uM incubated for 48 hrs by sulforhodamine B assay relative to control
HCT-15 = assay: Growth inhibition of human HCT-15 cells at 10 uM incubated for 48 hrs by sulforhodamine B assay relative to control
HT-29 = assay: Growth inhibition of human HT-29 cells at 10 uM incubated for 48 hrs by sulforhodamine B assay relative to control
KM12 = assay: Growth inhibition of human KM12 cells at 10 uM incubated for 48 hrs by sulforhodamine B assay relative to control
SW-620 = assay: Growth inhibition of human SW-620 cells at 10 uM incubated for 48 hrs by sulforhodamine B assay relative to control
SF-268 = assay: Growth inhibition of human SF-268 cells at 10 uM incubated for 48 hrs by sulforhodamine B assay relative to control
SNB-19 = assay: Growth inhibition of human SNB-19 cells at 10 uM incubated for 48 hrs by sulforhodamine B assay relative to control
SNB-75 = assay: Growth inhibition of human SNB-75 cells at 10 uM incubated for 48 hrs by sulforhodamine B assay relative to control
LOX IMVI = assay: Growth inhibition of human LOX IMVI cells at 10 uM incubated for 48 hrs by sulforhodamine B assay relative to control
Malme-3M = assay: Growth inhibition of human Malme-3M cells at 10 uM incubated for 48 hrs by sulforhodamine B assay relative to control
M14 = assay: Growth inhibition of human M14 cells at 10 uM incubated for 48 hrs by sulforhodamine B assay relative to control
MDA-MB-435 = assay: Growth inhibition of human MDA-MB-435 cells at 10 uM incubated for 48 hrs by sulforhodamine B assay relative to control
SK-MEL-28 = assay: Growth inhibition of human SK-MEL-28 cells at 10 uM incubated for 48 hrs by sulforhodamine B assay relative to control
SK-MEL-5 = assay: Growth inhibition of human SK-MEL-5 cells at 10 uM incubated for 48 hrs by sulforhodamine B assay relative to control
UACC-257 = assay: Growth inhibition of human UACC-257 cells at 10 uM incubated for 48 hrs by sulforhodamine B assay relative to control
UACC-62 = assay: Growth inhibition of human UACC-62 cells at 10 uM incubated for 48 hrs by sulforhodamine B assay relative to control
IGROV-1 = assay: Growth inhibition of human IGROV-1 cells at 10 uM incubated for 48 hrs by sulforhodamine B assay relative to control
OVCAR-3 = assay: Growth inhibition of human OVCAR-3 cells at 10 uM incubated for 48 hrs by sulforhodamine B assay relative to control
OVCAR-4 = assay: Growth inhibition of human OVCAR-4 cells at 10 uM incubated for 48 hrs by sulforhodamine B assay relative to control
OVCAR-5 = assay: Growth inhibition of human OVCAR-5 cells at 10 uM incubated for 48 hrs by sulforhodamine B assay relative to control
NCI/ADR-RES = assay: Growth inhibition of human NCI/ADR-RES cells at 10 uM incubated for 48 hrs by sulforhodamine B assay relative to control
SK-OV-3 = assay: Growth inhibition of human SK-OV-3 cells at 10 uM incubated for 48 hrs by sulforhodamine B assay relative to control
786-0 = assay: Growth inhibition of human 786-0 cells at 10 uM incubated for 48 hrs by sulforhodamine B assay relative to control
ACHN = assay: Growth inhibition of human ACHN cells at 10 uM incubated for 48 hrs by sulforhodamine B assay relative to control
CAKI-1 = assay: Growth inhibition of human CAKI-1 cells at 10 uM incubated for 48 hrs by sulforhodamine B assay relative to control
RXF 393 = assay: Growth inhibition of human RXF 393 cells at 10 uM incubated for 48 hrs by sulforhodamine B assay relative to control
TK-10 = assay: Growth inhibition of human TK-10 cells at 10 uM incubated for 48 hrs by sulforhodamine B assay relative to control
DU-145 = assay: Growth inhibition of human DU-145 cells at 10 uM incubated for 48 hrs by sulforhodamine B assay relative to control
MCF7 = assay: Growth inhibition of human MCF7 cells at 10 uM incubated for 48 hrs by sulforhodamine B assay relative to control
MDA-MB-231 = assay: Growth inhibition of human MDA-MB-231 cells at 10 uM incubated for 48 hrs by sulforhodamine B assay relative to control
BT-549 = assay: Growth inhibition of human BT-549 cells at 10 uM incubated for 48 hrs by sulforhodamine B assay relative to control
T47D = assay: Growth inhibition of human T47D cells at 10 uM incubated for 48 hrs by sulforhodamine B assay relative to control

Cc1cc(NCC(=O)Nc2ccc(-c3nc4ccccc4s3)cc2)no1
inhibition of growth at 10 µM (CCRF-CEM): 46.3%
inhibition of growth at 10 µM (K562): 17%
inhibition of growth at 10 µM (RPMI-8226): 1.57%
inhibition of growth at 10 µM (A549): 7.66%
inhibition of growth at 10 µM (HOP-92): -0.34%
inhibition of growth at 10 µM (NCI-H226): 8.98%
inhibition of growth at 10 µM (NCI-H23): 17.2%
inhibition of growth at 10 µM (NCI-H322M): -1.5%
inhibition of growth at 10 µM (NCI-H460): -2.65%
inhibition of growth at 10 µM (NCI-H522): 17.9%
inhibition of growth at 10 µM (COLO 205): -7.78%
inhibition of growth at 10 µM (HCC 2998): 0.84%
inhibition of growth at 10 µM (HCT-116): 9.26%
inhibition of growth at 10 µM (HCT-15): 9.32%
inhibition of growth at 10 µM (HT-29): -4.71%
inhibition of growth at 10 µM (KM12): -1.64%
inhibition of growth at 10 µM (SW-620): -13.2%
inhibition of growth at 10 µM (SF-268): 12.6%
inhibition of growth at 10 µM (SNB-19): 3.47%
inhibition of growth at 10 µM (SNB-75): -11.5%
inhibition of growth at 10 µM (LOX IMVI): 143%
inhibition of growth at 10 µM (Malme-3M): 10.5%
inhibition of growth at 10 µM (M14): -5.87%
inhibition of growth at 10 µM (MDA-MB-435): -4.18%
inhibition of growth at 10 µM (SK-MEL-28): -10.5%
inhibition of growth at 10 µM (SK-MEL-5): 12.3%
inhibition of growth at 10 µM (UACC-257): 0.29%
inhibition of growth at 10 µM (UACC-62): 13.5%
inhibition of growth at 10 µM (IGROV-1): 11.5%
inhibition of growth at 10 µM (OVCAR-3): 0.7%
inhibition of growth at 10 µM (OVCAR-4): -10.7%
inhibition of growth at 10 µM (OVCAR-5): -19%
inhibition of growth at 10 µM (NCI/ADR-RES): -2.68%
inhibition of growth at 10 µM (SK-OV-3): -19.7%
inhibition of growth at 10 µM (786-0): -1.59%
inhibition of growth at 10 µM (ACHN): -10.7%
inhibition of growth at 10 µM (CAKI-1): -3.5%
inhibition of growth at 10 µM (RXF 393): -4.8%
inhibition of growth at 10 µM (TK-10): 7.91%
inhibition of growth at 10 µM (DU-145): 4.13%
inhibition of growth at 10 µM (MCF7): 64.1%
inhibition of growth at 10 µM (MDA-MB-231): -8.49%
inhibition of growth at 10 µM (BT-549): 5.29%
inhibition of growth at 10 µM (T47D): 19.7%
